Where a name gives a salt, the structure may show the parent alone.
Biological target: T1, Bradykinin receptor (Cavia porcellus, UniProt O70526)
T1 construct: The ileum was removed and homogenized in buffer; from tissue; host or cells: guinea pig ileum, crude membrane suspension
T1 sequence (O70526 1-372): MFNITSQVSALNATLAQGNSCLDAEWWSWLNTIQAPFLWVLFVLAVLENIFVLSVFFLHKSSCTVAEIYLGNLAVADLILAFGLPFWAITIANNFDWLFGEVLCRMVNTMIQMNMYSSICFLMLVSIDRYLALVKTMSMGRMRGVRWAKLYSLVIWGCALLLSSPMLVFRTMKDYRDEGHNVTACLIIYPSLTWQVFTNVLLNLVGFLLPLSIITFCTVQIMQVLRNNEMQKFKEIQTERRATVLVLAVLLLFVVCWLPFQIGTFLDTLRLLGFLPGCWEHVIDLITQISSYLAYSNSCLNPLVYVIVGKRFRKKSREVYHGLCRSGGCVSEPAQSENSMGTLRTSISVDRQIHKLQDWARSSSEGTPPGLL
Experiment: 3H-Bradykinin receptor binding (crude ileum membrane)
Set-up: species or system guinea pig (male Hartly strain)
Settings: concentration: 1 × 10^-6 M; guinea pig ileum membrane, room temperature, 60 minutes
Protocol: ^3 H-Bradykinin receptor binding
(a) Crude ileum membrane preparation
Male Hartly strain guinea pigs were sacrificed by decapitation. The ileum was removed and homogenized in buffer (50 mM trimethylaminoethanesulfonic acid (TES), 1 mM 1,10-phenanthroline pH 6.8). The homogenate was centrifuged (1000× g, 20 minutes) to remove tissue clumps and the supernatant was centrifuges (100,000× g, 60 minutes) to yield a pellet. The pellet was resuspended in buffer (50 mM TES, 1 mM 1,10-phenanthroline, 140 mg/l bacitracin, 1 mM dithiothreiol, 0.1% bovine serum albumin pH 6.8) and homogenized with a glass-teflon homogenizer to yield suspension which was referred to as crude membrane suspension. The obtained membrane suspension was stored at -80° C. until use.
(b) ^3 H-Bradykinin binding to the membrane
The frozen crude membrane suspension was thawed. In binding assays, ^3 H-Bradykinin ([…]) and drug (1×10^-6 M) were incubated with 50 μl of the membrane suspension at room temperature for 60 minutes in a final volume of 250 μl. Separation of receptor-bound from free ^3 H-Bradykinin is achieved by immediate filtration under vacuum and washed three times with 5 ml of ice-cold buffer (50 mM Tris-HCl pH 7.5). Non-specific binding was defined as binding in the presence of 0.1 μM Bradykinin. The radioactivity retained on rinsed filters was determined by a liquid-scintillation counter.

inhibition at 1 µM [%] | SMILES
96 | CNC(=O)c1nc2ccc(C(=O)NCC(=O)N(C)c3ccc(Cl)c(COc4cccc5ccc(C)nc45)c3Cl)cc2cc1C [25-(2) dihydrochloride]
100 | COC(=O)c1cncc(NC(=O)NCC(=O)N(C)c2ccc(Cl)c(COc3cccc4ccc(C)nc34)c2Cl)c1 [34-(3), 8-[2,6-Dichloro-3-[N-[N'-(5-methoxycarbonylpyridin-3-yl)ureidoacetyl]-N-methylamino]benzyloxy]-2-methylquinoline]
96 | Cc1ccc2cccc(OCc3c(Cl)ccc(N(C)C(=O)CNC(=O)CNc4nc5ccccc5s4)c3Cl)c2n1 [2-(14), 8-[3-[N-[2-(2-Benzothiazolylamino)acetylglycyl]-N-methylamino]-2,6-dichlorobenzyloxy]-2-methylquinoline]
99 | CNC(=O)c1ccc(/C=C/C(=O)NCC(=O)N(C)c2ccc(Cl)c(COc3cccc4c(NCCOC)cc(C)nc34)c2Cl)cc1 [10-(9) dihydrochloride]
95 | CNC(=O)c1ccc(/C=C/C(=O)NCC(=O)N(C)c2ccc(Cl)c(CNc3cccc4ccc(C)nc34)c2Cl)cc1 [Example 73-(4), 8-[2,6-dichloro-3-[N-methyl-N-[4-(methylcarbamoyl)cinnamoylglycyl]amino]benzylamino]-2-methylquinoline dihydrochloride]
100 | CNC(=O)c1ccc(/C=C/C(=O)NCC(=O)N(C)c2ccc(Cl)c(COc3cccc4ccc(C)nc34)c2)cc1 [37-(5) hydrochloride]
98 | CNC(=O)c1ccc(/C=C/C(=O)NCC(=O)N(C)c2ccc(C)c(COc3cccn4c(=O)cc(C)nc34)c2C)cc1 [90-(2), 9-[2,6-Dimethyl-3-[N-methyl-N-[4(methylcarbomoyl)cinnamoylglycyl]amino]benzyloxy]-2-methyl-4H-pyrido-[1,2-a]pyrimidin-4-one]

Reference: patent US5994368A, “Pyridopyrimidones, quinolines and fused N-heterocycles as bradykinin antagonists” (Fujisawa Pharmaceutical Co., Ltd., priority 1994, dated 1999)
